Experimental data as given in patent US9902702B2, “Spirocycloheptanes as inhibitors of rock” (BRISTOL-MYERS SQUIBB COMPANY, priority 2014, dated 2018).

What follows are compounds tested against ROCK2 (Homo sapiens, UniProt O75116) (assay: ROCK assay: phosphorylation of FITC peptide substrate, LABCHIP 3000 mobility shift). Conditions: 5 μM ATP, 1.5 μM peptide substrate; read-out: ROCK2 Activity (ROCK IC50 range).
Chain of ROCK2 (O75116 whole entry, species assumed): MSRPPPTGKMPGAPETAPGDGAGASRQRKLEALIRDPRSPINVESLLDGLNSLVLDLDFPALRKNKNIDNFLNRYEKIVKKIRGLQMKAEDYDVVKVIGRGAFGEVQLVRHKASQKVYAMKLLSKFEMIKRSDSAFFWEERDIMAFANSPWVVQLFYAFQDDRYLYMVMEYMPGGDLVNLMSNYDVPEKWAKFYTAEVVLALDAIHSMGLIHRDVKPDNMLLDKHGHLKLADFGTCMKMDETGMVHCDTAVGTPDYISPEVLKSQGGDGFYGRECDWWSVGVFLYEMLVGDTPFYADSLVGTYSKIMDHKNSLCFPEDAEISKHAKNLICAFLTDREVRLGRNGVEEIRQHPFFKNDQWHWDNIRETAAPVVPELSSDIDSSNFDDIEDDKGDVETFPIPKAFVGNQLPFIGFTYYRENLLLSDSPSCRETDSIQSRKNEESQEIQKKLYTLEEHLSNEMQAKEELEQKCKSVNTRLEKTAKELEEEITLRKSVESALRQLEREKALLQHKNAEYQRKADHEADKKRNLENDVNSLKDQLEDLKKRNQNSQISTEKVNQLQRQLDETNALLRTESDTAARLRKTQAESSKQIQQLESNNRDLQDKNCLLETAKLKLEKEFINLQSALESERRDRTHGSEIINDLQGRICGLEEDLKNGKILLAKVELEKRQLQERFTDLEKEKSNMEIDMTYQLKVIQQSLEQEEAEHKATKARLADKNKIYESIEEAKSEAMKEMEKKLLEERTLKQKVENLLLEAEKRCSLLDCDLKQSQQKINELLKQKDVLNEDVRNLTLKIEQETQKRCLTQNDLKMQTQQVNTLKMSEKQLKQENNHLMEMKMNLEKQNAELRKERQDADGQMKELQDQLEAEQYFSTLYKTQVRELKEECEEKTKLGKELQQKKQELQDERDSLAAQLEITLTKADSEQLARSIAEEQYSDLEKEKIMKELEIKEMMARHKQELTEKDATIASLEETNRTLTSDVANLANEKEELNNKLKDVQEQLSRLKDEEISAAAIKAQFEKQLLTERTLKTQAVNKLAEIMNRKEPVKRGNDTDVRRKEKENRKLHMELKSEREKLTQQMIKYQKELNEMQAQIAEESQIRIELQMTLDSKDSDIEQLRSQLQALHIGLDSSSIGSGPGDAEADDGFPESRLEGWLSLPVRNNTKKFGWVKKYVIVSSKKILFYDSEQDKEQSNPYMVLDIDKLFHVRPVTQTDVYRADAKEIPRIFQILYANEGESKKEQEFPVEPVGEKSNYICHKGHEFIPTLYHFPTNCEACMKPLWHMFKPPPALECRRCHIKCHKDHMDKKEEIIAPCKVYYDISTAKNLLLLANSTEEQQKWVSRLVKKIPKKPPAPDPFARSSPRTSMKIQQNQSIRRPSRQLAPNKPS
Type: biochemical
Outline: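 Rho kinase variant phosphorylates 1.5 μM FITC-AHA-AKRRRLSSLRA-OH with 5 μM ATP in 20 mM HEPES pH 7.5, 20 mM MgCl2, 0.015% Brij-35, 4 mM DTT, DMSO <2%. EDTA stops the reaction, and phospho and non-phospho peptides are resolved by LabChip 3000 mobility shift. IC50 from dose-response curve fit.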
Work on `O=C(NC1CC2(C1)CC(c1n[nH]c(=O)c3ccccc13)C2)c1cn2c(n1)sc1ccccc12` [Example 94, N-((aR)-6-(4-oxo-3,4-dihydrophthalazin-1-yl)spiro[3.3]heptan-2-yl)benzo[d]imidazo[2,1-b]thiazole-2-carboxamide] yielded an IC50 of 5.1 to 15 nM. For `CCc1nn2cc(C(=O)NC3CC4(C3)CC(c3n[nH]c(=O)c5ccccc35)C4)nc2s1` [Example 95, 2-ethyl-N-((aR)-6-(4-oxo-3,4-dihydrophthalazin-1-yl)spiro[3.3]heptan-2-yl)imidazo[2,1-b][1,3,4]thiadiazole-6-carboxamide], the IC50 was 5.1 to 15 nM. `O=C(NC1CC2(C1)CC(c1n[nH]c(=O)c3ccccc13)C2)c1cnn2ncccc12` [Example 96, N-((aR)-6-(4-oxo-3,4-dihydrophthalazin-1-yl)spiro[3.3]heptan-2-yl)pyrazolo[1,5-b]pyridazine-3-carboxamide] showed an IC50 of 15.1 to 100 nM. With `CC(C)(O)COc1ccc2c(C(=O)NC3CC4(C3)CC(c3n[nH]c(=O)c5ccccc35)C4)cnn2c1C1CC1` [Example 97, 7-cyclopropyl-6-(2-hydroxy-2-methylpropoxy)-N-((aR)-6-(4-oxo-3,4-dihydrophthalazin-1-yl)spiro[3.3]heptan-2-yl)pyrazolo[1,5-a]pyridine-3-carboxamide] the IC50 was 0.2 to 2 nM. For `O=C(NC1CC2(C1)CC(c1n[nH]c(=O)c3ccccc13)C2)c1cnn2cc(OCC(O)(C(F)(F)F)C(F)(F)F)ccc12` [Example 98, N-((aR)-6-(4-oxo-3,4-dihydrophthalazin-1-yl)spiro[3.3]heptan-2-yl)-6-(3,3,3-trifluoro-2-hydroxy-2-(trifluoromethyl)propoxy)pyrazolo[1,5-a]pyridine-3-carboxamide], the IC50 was 2.01 to 5 nM. `O=C(NC1CC2(C1)CC(c1n[nH]c(=O)c3ccccc13)C2)c1cnn2cc(OCc3ccccc3)ccc12` [Example 99, 6-(benzyloxy)-N-((aR)-6-(4-oxo-3,4-dihydrophthalazin-1-yl)spiro[3.3]heptan-2-yl)pyrazolo[1,5-a]pyridine-3-carboxamide] was tested, and the IC50 was 0.2 to 2 nM. For `O=C(NC1CC2(C1)CC(c1n[nH]c(=O)c3ccccc13)C2)c1ccnn1CC(F)F` [Example 100, 1-(2,2-difluoroethyl)-N-((aR)-6-(4-oxo-3,4-dihydrophthalazin-1-yl)spiro[3.3]heptan-2-yl)-1H-pyrazole-5-carboxamide], the IC50 was 100 to 2100 nM. With `O=C(NC1CC2(C1)CC(c1n[nH]c(=O)c3ccccc13)C2)c1ccnn1CCC(F)(F)F` [Example 101, N-((aR)-6-(4-oxo-3,4-dihydrophthalazin-1-yl)spiro[3.3]heptan-2-yl)-1-(3,3,3-trifluoropropyl)-1H-pyrazole-5-carboxamide] the IC50 was 15.1 to 100 nM. With `COc1ccc(Cn2cc(C(=O)NC3CC4(C3)CC(c3n[nH]c(=O)c5ccccc35)C4)cn2)cc1` [Example 102, 1-(4-methoxybenzyl)-N-((aR)-6-(4-oxo-3,4-dihydrophthalazin-1-yl)spiro[3.3]heptan-2-yl)-1H-pyrazole-4-carboxamide] the IC50 was 5.1 to 15 nM. For `O=C(NC1CC2(C1)CC(c1n[nH]c(=O)c3ccccc13)C2)c1ccnn1CC1CC1` [Example 103, 1-(cyclopropylmethyl)-N-((aR)-6-(4-oxo-3,4-dihydrophthalazin-1-yl)spiro[3.3]heptan-2-yl)-1H-pyrazole-5-carboxamide], the IC50 was 15.1 to 100 nM. Compound `O=C(NC1CC2(C1)CC(c1n[nH]c(=O)c3ccccc13)C2)c1ccnn1C1CCOCC1` [Example 104, N-((aR)-6-(4-oxo-3,4-dihydrophthalazin-1-yl)spiro[3.3]heptan-2-yl)-1-(tetrahydro-2H-pyran-4-yl)-1H-pyrazole-5-carboxamide] has an IC50 of 100 to 2100 nM. `O=C(NC1CC2(C1)CC(c1n[nH]c(=O)c3ccccc13)C2)c1cnn2cc(OC3CCOC3)ccc12` [Example 105, N-((aR)-6-(4-oxo-3,4-dihydrophthalazin-1-yl)spiro[3.3]heptan-2-yl)-6-((tetrahydrofuran-3-yl)oxy)pyrazolo[1,5-a]pyridine-3-carboxamide] gave an IC50 of 0.2 to 2 nM. With `CC(C)(C)OC(=O)NCCn1cc(C(=O)NC2CC3(C2)CC(c2n[nH]c(=O)c4ccccc24)C3)cn1` [Example 106, tert-butyl (2-(4-(((aR)-6-(4-oxo-3,4-dihydrophthalazin-1-yl)spiro[3.3]heptan-2-yl)carbamoyl)-1H-pyrazol-1-yl)ethyl)carbamate] the IC50 was 100 to 2100 nM. For `O=C(NC1CC2(C1)CC(c1n[nH]c(=O)c3ccccc13)C2)c1cnn2cc(OCC(O)C(F)(F)F)ccc12` [Example 107, N-((aR)-6-(4-oxo-3,4-dihydrophthalazin-1-yl)spiro[3.3]heptan-2-yl)-6-(3,3,3-trifluoro-2-hydroxypropoxy)pyrazolo[1,5-a]pyridine-3-carboxamide], the IC50 was 0.2 to 2 nM. For `COc1cccc(-n2cc(C(=O)NC3CC4(C3)CC(c3n[nH]c(=O)c5ccccc35)C4)cn2)c1` [Example 108, 1-(3-methoxyphenyl)-N-((aR)-6-(4-oxo-3,4-dihydrophthalazin-1-yl)spiro[3.3]heptan-2-yl)-1H-pyrazole-4-carboxamide], the IC50 was 2.01 to 5 nM. Work on `O=C(NC1CC2(C1)CC(c1n[nH]c(=O)c3ccccc13)C2)c1cnn(Cc2ccccc2)c1` [Example 109, 1-benzyl-N-((aR)-6-(4-oxo-3,4-dihydrophthalazin-1-yl)spiro[3.3]heptan-2-yl)-1H-pyrazole-4-carboxamide] yielded an IC50 of 2.01 to 5 nM. Work on `CC(C)(O)COc1ccc2c(C(=O)NC3CC4(C3)CC(c3n[nH]c(=O)c5ccccc35)C4)cnn2c1C(N)=O` [Example 110, 6-(2-hydroxy-2-methylpropoxy)-N3-((aR)-6-(4-oxo-3,4-dihydrophthalazin-1-yl)spiro[3.3]heptan-2-yl)pyrazolo[1,5-a]pyridine-3,7-dicarboxamide] yielded an IC50 of 15.1 to 100 nM. Compound `N#Cc1c(O)ccc2c(C(=O)NC3CC4(C3)CC(c3n[nH]c(=O)c5ccccc35)C4)cnn12` [Example 111, 7-cyano-6-hydroxy-N-((aR)-6-(4-oxo-3,4-dihydrophthalazin-1-yl)spiro[3.3]heptan-2-yl)pyrazolo[1,5-a]pyridine-3-carboxamide] has an IC50 of 15.1 to 100 nM. `Cc1c(OCC(C)(C)O)ccc2c(C(=O)NC3CC4(C3)CC(c3n[nH]c(=O)c5ccccc35)C4)cnn12` [Example 112, 6-(2-hydroxy-2-methylpropoxy)-7-methyl-N-((aR)-6-(4-oxo-3,4-dihydrophthalazin-1-yl)spiro[3.3]heptan-2-yl)pyrazolo[1,5-a]pyridine-3-carboxamide] was tested, and the IC50 was 2.01 to 5 nM. Work on `COCc1c(OCC(C)(C)O)ccc2c(C(=O)NC3CC4(C3)CC(c3n[nH]c(=O)c5ccccc35)C4)cnn12` [Example 113, 6-(2-hydroxy-2-methylpropoxy)-7-(methoxymethyl)-N-((aR)-6-(4-oxo-3,4-dihydrophthalazin-1-yl)spiro[3.3]heptan-2-yl)pyrazolo[1,5-a]pyridine-3-carboxamide] yielded an IC50 of 2.01 to 5 nM. Compound `Cc1c(C(=O)NC2CC3(C2)CC(c2n[nH]c(=O)c4ccccc24)C3)nnn1-c1ccccc1` [Example 114, 5-methyl-N-((aR)-6-(4-oxo-3,4-dihydrophthalazin-1-yl)spiro[3.3]heptan-2-yl)-1-phenyl-1H-1,2,3-triazole-4-carboxamide] has an IC50 of 2.01 to 5 nM. Work on `COc1ccc(-n2nnc(C(=O)NC3CC4(C3)CC(c3n[nH]c(=O)c5ccccc35)C4)c2C)cc1` [Example 115, 1-(4-methoxyphenyl)-5-methyl-N-((aR)-6-(4-oxo-3,4-dihydrophthalazin-1-yl)spiro[3.3]heptan-2-yl)-1H-1,2,3-triazole-4-carboxamide] yielded an IC50 of 2.01 to 5 nM.
